Reference: US8889874B2, “Imidazolone-chalcone derivatives as potential anticancer agent and process for the preparation thereof” (Council of Scientific and Industrial Research, priority 2010, dated 2014)
Like-named read-outs stand apart in the source and are kept apart here.

Assays:
Assay type in all cases: cell-based, human
Colon cancer cell lines = test: NCI anticancer screen, SRB assay, panel summary; details: for GI50: Homo sapiens
How it was run: (§1)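 Sulforhodamine B protein assay read cell growth after 48 h of continuous compound exposure. Dose-response curves per cell line used at least five 10-fold-diluted concentrations, within a panel of fifty-three human lines from nine tumour types.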

[1] = system: Non-small cell lung cancer cell lines; test: NCI anticancer screen, SRB assay, panel summary; details: Homo sapiens
How it was run: as §1

Breast cancer cell lines = test: NCI anticancer screen, SRB assay, panel summary; details: Homo sapiens
How it was run: as §1

Renal cancer cell lines = test: NCI anticancer screen, SRB assay, panel summary; details: Homo sapiens
How it was run: as §1

[2] = system: Leukemia cancer cell lines; test: NCI anticancer screen, SRB assay, panel summary; details: Homo sapiens
How it was run: as §1

CNS cancer cell lines = test: NCI anticancer screen, SRB assay, panel summary; details: for GI50: Homo sapiens
How it was run: as §1

[3] = system: Prostate cancer cell lines; test: NCI anticancer screen, SRB assay, panel summary
How it was run: as §1

[4] = system: Melanoma cancer cell lines; test: NCI anticancer screen, SRB assay, panel summary; details: for GI50: Homo sapiens
How it was run: as §1

[5] = system: Ovarian cancer cell lines; test: NCI anticancer screen, SRB assay, panel summary; details: Homo sapiens
How it was run: as §1

[6] = system: K-562 (leukemia cell line); test: NCI anticancer screen, SRB assay, 48 h; details: Homo sapiens
How it was run: as §1

SN12C (renal) = test: NCI anticancer screen, SRB assay, 48 h; details: Homo sapiens, SN12C
How it was run: as §1

MDA-MB-231/ATCC (breast) = test: NCI anticancer screen, SRB assay, 48 h; details: Homo sapiens
How it was run: as §1

SF-295 (CNS) = test: NCI anticancer screen, SRB assay, 48 h; details: Homo sapiens
How it was run: as §1

SW-620 (colon) = test: NCI anticancer screen, SRB assay, 48 h; details: Homo sapiens
How it was run: as §1

MDA-MB-435 (melanoma) = test: NCI anticancer screen, SRB assay, 48 h; details: Homo sapiens
How it was run: as §1

HCT-15 (colon) = test: NCI anticancer screen, SRB assay, 48 h; details: Homo sapiens
How it was run: as §1

[7] = system: HOP-92 (non-small cell lung); test: NCI anticancer screen, SRB assay, 48 h; details: Homo sapiens
How it was run: as §1

786-0 (renal) = test: NCI anticancer screen, SRB assay, 48 h; details: Homo sapiens
How it was run: as §1

HS 578T (breast) = test: NCI anticancer screen, SRB assay, 48 h; details: Homo sapiens
How it was run: as §1

A498 (renal) = test: NCI anticancer screen, SRB assay, 48 h; details: Homo sapiens
How it was run: as §1

[8] = system: NCI-H460 (non-small cell lung); test: NCI anticancer screen, SRB assay, 48 h; details: Homo sapiens
How it was run: as §1

SF-539 (CNS) = test: NCI anticancer screen, SRB assay, 48 h; details: Homo sapiens
How it was run: as §1

MCF7 (breast) = test: NCI anticancer screen, SRB assay, 48 h; details: Homo sapiens
How it was run: as §1

BT-549 (breast) = test: NCI anticancer screen, SRB assay, 48 h; details: Homo sapiens
How it was run: as §1

HCC-2998 (colon) = test: NCI anticancer screen, SRB assay, 48 h; details: Homo sapiens
How it was run: as §1

TK-10 (renal) = test: NCI anticancer screen, SRB assay, 48 h; details: Homo sapiens
How it was run: as §1

OVCAR-5 (ovarian) = test: NCI anticancer screen, SRB assay, 48 h; details: Homo sapiens
How it was run: as §1

SF-268 (CNS) = test: NCI anticancer screen, SRB assay, 48 h; details: Homo sapiens
How it was run: as §1

SK-MEL-5 (melanoma) = test: NCI anticancer screen, SRB assay, 48 h; details: Homo sapiens
How it was run: as §1

PC-3 (prostate) = test: NCI anticancer screen, SRB assay, 48 h; details: Homo sapiens
How it was run: as §1

U251 (CNS) = test: NCI anticancer screen, SRB assay, 48 h; details: Homo sapiens
How it was run: as §1

LOX IMVI (melanoma) = test: NCI anticancer screen, SRB assay, 48 h; details: Homo sapiens
How it was run: as §1

[9] = 48 h exposure, SRB, read-out: GI50
[10] = read-out: pGI50 (-log of molar concentration causing 50% inhibition of net cell growth) (converted)

COc1ccc(-c2cn(-c3cccc(C(=O)/C=C/c4ccc(O)c(OC)c4)c3)c(=O)[nH]2)cc1 [3b, 1-3-[(E)-3-(4-hydroxy-3-methoxyphenyl)-2-propenoyl]phenyl-4-(4-methoxyphenyl)-2,3-dihydro-1H-2-imidazolone]
mean graph midpoint (MG_MID) of Log10 LC50 (Colon cancer cell lines; Colon panel, log of concentration leading to 50% net cell death): 4.33
GI50 (Colon cancer cell lines; Colon panel, log of concentration in mol/L causing 50% inhibition of net cell growth, read-out: mean graph midpoint (MG_MID) of Log10 GI50 (converted)): 2.88 µM
GI50 (Colon cancer cell lines; seven colon cancer cell lines, exposure at least 48 hrs, read-out: GI50, range over the panel): 1.77 to 6.61 µM
GI50 ([1]; Non-small cell lung panel, log of concentration in mol/L causing 50% inhibition of net cell growth, read-out: mean graph midpoint (MG_MID) of Log10 GI50 (converted)): 4.68 µM
LC50 ([1]; Non-small cell lung panel, log of concentration leading to 50% net cell death, read-out: mean graph midpoint (MG_MID) of Log10 LC50 (converted)): ≥ 100 µM
GI50 ([1]; nine non-small cell lung cancer cell lines, exposure at least 48 hrs, read-out: GI50, range over the panel): 2.85 to 13.4 µM
GI50 (Breast cancer cell lines; Breast panel, log of concentration in mol/L causing 50% inhibition of net cell growth, read-out: mean graph midpoint (MG_MID) of Log10 GI50 (converted)): 4.17 µM
LC50 (Breast cancer cell lines; Breast panel, log of concentration leading to 50% net cell death, read-out: mean graph midpoint (MG_MID) of Log10 LC50 (converted)): 100 µM
GI50 (Breast cancer cell lines; five breast cancer cell lines, exposure at least 48 hrs, read-out: GI50, range over the panel): 3.18 to 5.25 µM
GI50 (Renal cancer cell lines; Renal panel, log of concentration in mol/L causing 50% inhibition of net cell growth, read-out: mean graph midpoint (MG_MID) of Log10 GI50 (converted)): 4.68 µM
LC50 (Renal cancer cell lines; Renal panel, log of concentration leading to 50% net cell death, read-out: mean graph midpoint (MG_MID) of Log10 LC50 (converted)): 95.5 µM
GI50 (Renal cancer cell lines; eight renal cancer cell lines, exposure at least 48 hrs, read-out: GI50, range over the panel): 3.4 to 6.08 µM
GI50 ([2]; Leukemia panel, log of concentration in mol/L causing 50% inhibition of net cell growth, read-out: mean graph midpoint (MG_MID) of Log10 GI50 (converted)): 1.78 µM
LC50 ([2]; Leukemia panel, log of concentration leading to 50% net cell death, read-out: mean graph midpoint (MG_MID) of Log10 LC50 (converted)): 38 µM
GI50 ([2]; two leukemia cancer cell lines (RPMI-8226 and K-562), exposure at least 48 hrs, read-out: GI50, range over the panel): 1.35 to 2.35 µM
mean graph midpoint (MG_MID) of Log10 LC50 (CNS cancer cell lines; CNS panel, log of concentration leading to 50% net cell death): 4.06
GI50 (CNS cancer cell lines; CNS panel, log of concentration in mol/L causing 50% inhibition of net cell growth, read-out: mean graph midpoint (MG_MID) of Log10 GI50 (converted)): 4.68 µM
GI50 (CNS cancer cell lines; six CNS cancer cell lines, exposure at least 48 hrs, read-out: GI50, range over the panel): 2.25 to 13.9 µM
GI50 ([3]; Homo sapiens, log of concentration in mol/L causing 50% inhibition of net cell growth, read-out: mean graph midpoint (MG_MID) of Log10 GI50 (converted)): 3.02 µM
LC50 ([3]; Homo sapiens, log of concentration leading to 50% net cell death, read-out: mean graph midpoint (MG_MID) of Log10 LC50 (converted)): ≥ 100 µM
mean graph midpoint (MG_MID) of Log10 TGI ([3]; log of concentration resulting in total inhibition of net cell growth): 4.80
GI50 ([4]; Melanoma panel, log of concentration in mol/L causing 50% inhibition of net cell growth, read-out: mean graph midpoint (MG_MID) of Log10 GI50 (converted)): 4.07 µM
GI50 ([4]; nine melanoma cancer cell lines, exposure at least 48 hrs, read-out: GI50, range over the panel): 2.03 to 13.3 µM
mean graph midpoint (MG_MID) of Log10 LC50 ([4]; Melanoma panel, log of concentration leading to 50% net cell death): 4.13
GI50 ([5]; Ovarian panel, log of concentration in mol/L causing 50% inhibition of net cell growth, read-out: mean graph midpoint (MG_MID) of Log10 GI50 (converted)): 3.89 µM
LC50 ([5]; Ovarian panel, log of concentration leading to 50% net cell death, read-out: mean graph midpoint (MG_MID) of Log10 LC50 (converted)): 100 µM
GI50 ([5]; six ovarian cancer cell lines, exposure at least 48 hrs, read-out: GI50, range over the panel): 2.56 to 6.08 µM
GI50 ([6]; K562, 48 h exposure, SRB, read-out: GI50): 2.35 µM
GI50 ([6]; K562, read-out: pGI50 (-log of molar concentration causing 50% inhibition of net cell growth) (converted)): 2.34 µM
GI50 (SN12C (renal); SN 12C, read-out: pGI50 (-log of molar concentration causing 50% inhibition of net cell growth) (converted)): 4.07 µM
GI50 (SN12C (renal); [9]): 4.11 µM
GI50 (MDA-MB-231/ATCC (breast); [9]): 5.25 µM
GI50 (MDA-MB-231/ATCC (breast); [10]): 5.25 µM
GI50 (SF-295 (CNS); [9]): 13.9 µM
GI50 (SF-295 (CNS); [10]): 13.8 µM
GI50 (SW-620 (colon); [9]): 2.5 µM
GI50 (SW-620 (colon); [10]): 2.51 µM
GI50 (MDA-MB-435 (melanoma); [9]): 3.35 µM
GI50 (MDA-MB-435 (melanoma); [10]): 3.39 µM
GI50 (HCT-15 (colon); [9]): 3.15 µM
GI50 (HCT-15 (colon); [10]): 3.16 µM
GI50 [7, 9]: 2.96 µM
GI50 [7, 10]: 2.95 µM
GI50 (786-0 (renal); [9]): 4.53 µM
GI50 (786-0 (renal); [10]): 4.57 µM
GI50 (HS 578T (breast); [9]): 4.25 µM
GI50 (HS 578T (breast); [10]): 4.27 µM
GI50 (A498 (renal); [9]): 3.72 µM
GI50 (A498 (renal); [10]): 3.72 µM
GI50 [8, 9]: 3.23 µM
GI50 [8, 10]: 3.24 µM
GI50 (SF-539 (CNS); [9]): 2.25 µM
GI50 (SF-539 (CNS); [10]): 2.24 µM
GI50 (MCF7 (breast); [9]): 3.18 µM
GI50 (MCF7 (breast); [10]): 3.16 µM
GI50 (BT-549 (breast); [9]): 4.57 µM
GI50 (BT-549 (breast); [10]): 4.57 µM
GI50 (HCC-2998 (colon); [9]): 2.32 µM
GI50 (HCC-2998 (colon); [10]): 2.34 µM
GI50 (TK-10 (renal); [9]): 6.08 µM
GI50 (TK-10 (renal); [10]): 6.03 µM
GI50 (OVCAR-5 (ovarian); [9]): 3.38 µM
GI50 (OVCAR-5 (ovarian); [10]): 3.39 µM
GI50 (SF-268 (CNS); [9]): 3.4 µM
GI50 (SF-268 (CNS); [10]): 3.39 µM
GI50 (SK-MEL-5 (melanoma); [9]): 2.63 µM
GI50 (SK-MEL-5 (melanoma); [10]): 2.63 µM
GI50 (PC-3 (prostate); PC-3, read-out: pGI50 (-log of molar concentration causing 50% inhibition of net cell growth) (converted)): 3.02 µM
GI50 (PC-3 (prostate); one prostate cancer cell line (PC-3), exposure at least 48 hrs, read-out: GI50): 3.05 µM
GI50 (U251 (CNS); U-251, 48 h exposure, SRB, read-out: GI50): 3.45 µM
GI50 (U251 (CNS); U-251, read-out: pGI50 (-log of molar concentration causing 50% inhibition of net cell growth) (converted)): 3.47 µM
GI50 (LOX IMVI (melanoma); [9]): 2.44 µM
GI50 (LOX IMVI (melanoma); [10]): 2.45 µM
